Drawing on ChEMBL document CHEMBL5303711, “ECBD screening data for assay EOS300108” (2023), this text covers CC50 for 93 molecules.

The source made the active and inactive calls. The rule behind the calls is not given here.

This series in a line: Cytotoxicity activity against human HepG2 cells assessed by CellTiter-Glo luminescent cell viability assay. The arrangement: assay stage confirmatory assay, source tissue liver. The format is toxicity, cell-based. The conditions noted are these: HepG2 cells, read-out: IC50 relative. A general note: ATP-based viability assays read luminescence as a measure of living cells.

Regarding `CC(C)Oc1cc(O)c2c(=O)c(-c3ccc(O)cc3)coc2c1`, the CC50 was 15.6 µM (active).
As for `O=c1c2ccccc2cnn1-c1nc2ccccc2[nH]1`, the CC50 was 5.2 µM (active).
As for `CN1C(=O)c2cccc3c(S(=O)(=O)NC4CCCCC4)ccc1c23`, the figure is 50 µM (inactive); as for `O=c1cnnc(NCc2ccccc2)n1Cc1ccccc1`, 4.5 µM (active).
Turning to `CCC[C@H](NCc1csc(N(C)C)n1)c1ncccc1Cl`, the CC50 was 11.1 µM (active).
Take `Cc1nc(-c2ccccn2)[nH]c(=O)c1CC(=O)N(C)[C@H]1CCc2ccccc21`: the CC50 was 6.3 µM (active).
The result for `CCOc1ncccc1C(=O)Nc1cc(F)ccc1F` reads 1.3 µM (active); that for `CC[C@H]1c2ccsc2CCN1C(=O)c1cc(OC)cc(OC)c1`, 13 µM (active); that for `O=C(Nc1ccc(O[C@H]2CCOC2)cc1)c1cn2ccnc2s1`, 1.8 µM (active).
As for `O=C1c2sc3nccc(=O)n3c2C(=O)N1Cc1ccccc1`, the CC50 was 10.8 µM (active).
As for `CC(C)c1cc(C(=O)NCc2ccc(N3CCO[C@@H](C)C3)nc2)n[nH]1`, the figure is 4.8 µM (active); as for `COc1ccccc1C(=O)Cc1nc2ccccc2o1`, 8 µM (inactive).
The result for `Oc1ccc(CCNc2ncnc3cccc(F)c23)cc1` reads 3.7 µM (active); that for `Cc1noc(C)c1C(=O)Nc1nc(-c2ccc(S(=O)(=O)N(C)C)cc2)cs1`, 11.3 µM (active).
As for `CCOc1cc(C)c(CN2C[C@@H](CN(C)C)C[C@H](CO)C2)cc1C(C)C`, the figure is 4.1 µM (active); as for `Cc1nc(-c2ccccn2)[nH]c(=O)c1CC(=O)N1CCC[C@H]1C1CCCCC1`, 6.7 µM (active).
On to `CCOc1ccc(NC(=O)c2nc(S(C)(=O)=O)ncc2Br)cc1`, for which the CC50 was 1.6 µM (active).
`CC(C)N(CCNS(=O)(=O)c1ccc(-n2ncc(Cl)c(Cl)c2=O)cc1)C(C)C`: the CC50 is 1.3 µM (active).
The result for `COc1ccc(C(N)=O)cc1NC(=O)c1cc(Br)c[nH]1` reads 1.2 µM (active); that for `CCc1ccc2nc(N3CCC(C(=O)NCCN(CC)CC)CC3)sc2c1`, 3.1 µM (active).
Regarding `CC(C)[C@H](NC1CCN(C(=O)c2ccoc2)CC1)c1ccccc1`, the CC50 is 10.7 µM (active).
Take `Cc1c(C(=O)Nc2ccnc3ccnn23)cnn1-c1ccccc1F`: the CC50 is 3.3 µM (active).
Take `Cc1nc(NC(=O)c2cc(Br)cn2C)sc1C`: the CC50 was 1 µM (active).
`N#CCCn1c(=O)c(C(=O)NCCCc2ccccc2)c(O)c2ccccc21`: the CC50 is 5.9 µM (active).
For `CC1=C(c2ccccc2)C1C(=O)NC1(C(N)=O)CCCCC1` (stereo not drawn), the CC50 is 14.7 µM (active).
The result for `CCOc1ccc(CN2CCN(C(=O)c3ccc(-c4ncon4)cc3)CC2)cc1` reads 5 µM (active).
As for `C[C@@H]1Oc2ccc(NC(=O)c3ccc(S(=O)(=O)NCc4ccco4)cc3)cc2NC1=O`, the CC50 is 6.8 µM (inactive).
Take `Cc1ccc(NC(=O)c2nc(S(C)(=O)=O)ncc2Br)cc1`: the CC50 was 2.7 µM (active).
As for `O=C(c1cc(-c2ccco2)on1)N1CCc2ccccc21`, the figure is 8.6 µM (active); as for `CCc1n[nH]cc1C(=O)N[C@H]1CC[C@H](Nc2nccc(-c3ccccn3)n2)C1`, 3.9 µM (active).
As for `COc1cc(OC)c2cc(CCCN)[nH]c2c1`, the figure is 8.2 µM (active); as for `Cc1ccc(F)c(C(=O)N2CCC(Oc3ccncc3C)CC2)c1`, 11.2 µM (active); as for `CCS(=O)(=O)c1ncc(Br)c(C(=O)Nc2ccc(C)cc2)n1`, 3.1 µM (active).
As for `CN1CCNc2cc(Br)ccc21`, the figure is 15.3 µM (inactive); as for `CC(=O)NCc1ccc(C(=O)Cn2ncc(Cl)c(Cl)c2=O)cc1`, 8 µM (active).
With `C[C@H]1Cc2cc(S(N)(=O)=O)ccc2N1Cc1cc(=O)n2cc(Cl)ccc2n1`, the CC50 is 10.9 µM (active).
The result for `Fc1cccc(OC2CCN(C[C@H]3[C@@H]4CNC[C@@H]43)CC2)c1` reads 7.9 µM (active); that for `CCOc1ccc(OCC)c(NC(=O)c2ccc(N3CCN(C(C)C)CC3)cc2)c1`, 9.8 µM (active).
As for `CCCOc1ccccc1-n1c(C)cn2c3c(=O)n(C)c(=O)n(C)c3nc12`, the figure is 6.7 µM (active); as for `Cc1oc(-c2ccccc2)nc1C(=O)Nc1ncccc1O`, 9.6 µM (inactive).
The result for `CN(C)S(=O)(=O)c1cccc(NC(=O)c2ccc(S(=O)(=O)N(C)c3ccccc3)cc2)c1` reads 2.6 µM (active).
Regarding `NC(=O)c1c(NC(=O)Cn2ncc(Cl)c(Cl)c2=O)sc2c1CCC2`, the CC50 is 1.9 µM (active).
The result for `CCn1c(-c2cccc(S(=O)(=O)N3CCOCC3)c2)cs/c1=N/c1ccccc1` reads 5 µM (active).
The result for `CN1C(=O)Cc2cc(S(=O)(=O)Nc3cccc4cccnc34)ccc21` reads 6.9 µM (active); that for `Oc1ccccc1N1CCN(C[C@H](O)COc2ccc(Oc3ccccc3)cc2)CC1`, 19.2 µM (inactive); that for `CCN(C(=O)c1ccco1)c1nc2ccccc2s1`, 0.9 µM (active).
For the molecule `O=c1ccc2cc(S(=O)(=O)Nc3cccc4cccnc34)ccc2o1`, the CC50 is 3.5 µM (active).
The result for `c1csc(Cn2cccc2CN2CCC[C@H](N3CCCC3)CC2)c1` reads 5.2 µM (active); that for `CN(Cc1cc(=O)n2cccc(O)c2n1)CC1(c2ccccc2)CC1(C)C` (stereo not drawn), 2.9 µM (active).
The result for `O=C(COc1ccc(F)cc1)N1CCN(c2ncnc3c(F)cccc23)CC1` reads 9.7 µM (active); that for `OC1(CNCCSCc2cccc(Cl)c2)CCNC1` (stereo not drawn), 8.4 µM (active).
On to `c1cc2c(cc1-c1ccc3c(n1)CCCN3)CCN2`, for which the CC50 was 13.5 µM (inactive).
As for `Nc1nccc(-n2nnc3ccccc32)n1`, the figure is 8.7 µM (active).
Consider `OC(c1ccccc1)C(CN1CCCC1)c1ccccc1` (stereo not drawn), for which the CC50 is 8.8 µM (active).
The result for `CC(C)c1cc(N2CCN(c3ccc(C#N)cc3)CC2)ncn1` reads 5.7 µM (active); that for `COc1ccc(OCCN2CCN(C(=O)c3ccc(OCc4cn5ccccc5n4)cc3)CC2)cc1`, 4.3 µM (active).
As for `CN(C)C1CCN(C(C)(C)CNCc2cccc(Cl)c2N)CC1`, the figure is 12 µM (active).
As for `Cc1ccn(-c2ccc(NC(=O)c3ccccn3)cc2)n1`, the figure is 4.5 µM (active); as for `COc1ccc(NC(=O)c2nc(S(C)(=O)=O)ncc2Br)cc1`, 1.9 µM (active).
Turning to `CCCOc1ccc(NC(=O)N2CCN(c3ccncc3)CC2)cc1Cl`, the CC50 was 7.4 µM (active).
As for `CC1CCc2c(sc3ncnc(NN)c23)C1` (stereo not drawn), the figure is 20.5 µM (inactive); as for `CCn1c(=O)c(C)nc2cc(C(=O)N3CCN(Cc4ccc(OC)cc4)CC3)ccc21`, 7.3 µM (active).
Turning to `Clc1ccc2oc(C3CCNCC3)cc2c1`, the CC50 was 10.1 µM (active).
With `Clc1cccc2[nH]nc(Br)c12`, the CC50 is 8.8 µM (active).
As for `O[C@H]1CCN(Cc2csc(-c3ccoc3)n2)C12CCCC2`, the figure is 5 µM (active).
As for `N#Cc1ccc(NC(=O)Nc2cnn(-c3ccccc3)c2)cc1`, the figure is 8.9 µM (active).
`CC(C)Cn1ccnc1NC(=O)COc1ccc2ccccc2c1`: the CC50 was 1.1 µM (active).
With `COc1cccc(NC(=O)CN(C)C(=O)Cn2ncc(Cl)c(Cl)c2=O)c1`, the CC50 was 8.5 µM (active).
As for `COCCNc1ncnc2scc(-c3ccccc3)c12`, the figure is 8.6 µM (active).
As for `COc1ccc(CN2CCN(c3ncnc4sccc34)CC2)cc1OC`, the figure is 1.4 µM (active); as for `CC(=O)NCCc1ccc(C(=O)Cn2ncc(Cl)c(Cl)c2=O)s1`, 7.8 µM (active).
The result for `CC(=O)Nc1cccc(NC(=O)c2cc3ccccc3cc2O)c1` reads 1.6 µM (inactive); that for `Cc1cccc(C(=O)Nc2nc3ccccc3[nH]2)n1`, 4.4 µM (active); that for `NNc1ncnc2ccc(Br)cc12`, 2.4 µM (active).
Regarding `O=C(Nc1ccc(O)cc1)c1cnn(Cc2ccccc2Cl)c1`, the CC50 is 8.4 µM (active).
For the molecule `O=C(Cn1nnc2ccccc21)Nc1nc(-c2ccccn2)cs1`, the CC50 is 1.7 µM (active).
Regarding `CC(C)CCOc1ccc(CN(CC(C)(C)N(C)C)S(C)(=O)=O)cc1`, the CC50 was 12.2 µM (active).
The result for `Cn1c(N2CCN(Cc3ccccc3)CC2)nc2c1c(=O)n(Cc1ccccc1)c(=O)n2C` reads 13.4 µM (inactive); that for `Cc1cc(C)cc(N2CCC(NCC3CCCNC3)CC2)c1` (stereo not drawn), 8.2 µM (active); that for `CN(C)Cc1ccc(C(=O)Nc2nc3c(s2)CCCC3)cc1`, 11.3 µM (active).
`CNc1c(Cl)ncnc1NCc1cccc(Cn2cccn2)c1`: the CC50 was 1.4 µM (active).
With `Cc1cccc(C(=O)Nc2ccc(C(=O)Nc3cccnc3)cc2)n1`, the CC50 was 5.8 µM (active).
Take `CCN(C(=O)c1c[nH]n2c1nc(=O)c1ccccc12)[C@@H](C)c1ccc(F)cc1`: the CC50 is 5 µM (active).
Turning to `O=C(Nc1ncc(-c2ccccc2)s1)c1ccccn1`, the CC50 was 2.3 µM (active).
In the case of `Cc1ccc(NC(=O)c2ccc(Cl)s2)cc1S(=O)(=O)N1CCOCC1`, the CC50 was 4.7 µM (active).
As for `Cc1ccc(NC(=O)CCN(C)CC2CCN(C)C2(C)C)cc1F` (stereo not drawn), the figure is 9.7 µM (active); as for `Cc1cc2c(N3CC[C@@]4(C3)NC(=O)N(C)C4=O)ccnc2cc1Cl`, 8.6 µM (active); as for `Clc1ccc(-c2cnc(CN3CC4(CCNCC4)[C@H]4COC[C@H]43)o2)cc1`, 12.8 µM (active).
On to `Cc1cc(N2CCNCC2)nc2c(C)cccc12`, for which the CC50 was 11.1 µM (active).
Regarding `COc1ccc(CN2CCN(CCSC)CC2)c2c(OC)cccc12`, the CC50 was 12.6 µM (inactive).
As for `NCCCNc1nc(-c2ccccc2)nc2ccccc12`, the figure is 11.9 µM (active); as for `CCOc1cc(C(=O)N[C@H]2CCN(C3CCN(C)CC3)C2)ccc1C`, 15.9 µM (inactive); as for `CS(=O)(=O)c1ncc(Br)c(C(=O)Nc2ccc(F)cc2)n1`, 2.8 µM (active).
